From patent US20220098184A1, “SOLID DISPERSION FORMULATIONS OF AN FXR AGONIST” (Terms Pharmaceuticals, Inc., priority 2020, published 2022)

Tests used:
[1] = Phase 1 randomized, open-label study in healthy subjects (PK, safety and tolerability); assay type: in vivo, human; conditions: all treatment groups
Procedure: A Phase 1 randomized, open-label study was conducted in 16 healthy subjects. PK samples of Compound I were obtained up to 72 hours after single oral administration of: 1) 5-mg strength and 25-mg strength tablets (prepared according to Example 3) in 16 fasted subjects; 2) 25-mg strength capsule (containing 25 mg Compound I not in a solid dispersion) in 8 fasted subjects; and 3) 5-mg strength tablet (prepared according to Example 3) in 8 subjects after a high-fat, high calorie meal. Safety and tolerability of the tablets and capsule were also assessed.

[2] = Tissue distribution of Compound I (liver vs other tissues); assay type: in vivo; conditions: liver relative to plasma, kidney, lungs, heart, and skin, read-out: Concentration in the liver relative to other tissues
[3] = BCS classification / aqueous solubility; assay type: physicochemical
[4] = Solubility study in phosphate buffer (pH=6.8), agitated at 37° C., filtrate measured by UV-vis; assay type: physicochemical; conditions: phosphate buffer pH 6.8, 37° C.
Procedure: Compound I, Compound U/Kollidon® VA 64 solid dispersion prepared according to Example 1, and Compound U/Soluplus® solid dispersion prepared according to Example 1 were dissolved in phosphate buffer (pH=6.8) and the resulting mixtures were agitated at 37° C. Samples were taken at 15 minutes, 30 minutes, 60 minutes, 120 minutes, 4 hours, 8 hours, and 24 hours.

Cn1cc(C(=O)O)c2ccc(N3CCC(OCc4c(-c5c(Cl)cccc5Cl)noc4C4CC4)CC3)cc21 [Compound I, 6-(4-((5-cyclopropyl-3-(2,6-dichlorophenyl)isoxazol-4-yl)methoxy)piperidin-1-yl)-1-methyl-1H-indole-3-carboxylic acid]
Safety and tolerability [1]: safe and well tolerated
Kp [2]: ~20
Aqueous solubility (in words) [3]: low aqueous solubility
BCS class [3]: BCS class II
Solubility in phosphate buffer (in words) [4]: low solubility
Concentration of Compound I ([4]; 15 min): 86 ng/mL
Concentration of Compound I ([4]; 30 min): 166 ng/mL
Concentration of Compound I ([4]; 60 min): 172 ng/mL
Concentration of Compound I ([4]; 120 min): 188 ng/mL
Concentration of Compound I ([4]; 4 hrs): 166 ng/mL
Concentration of Compound I ([4]; 8 hrs): 207 ng/mL
Concentration of Compound I ([4]; 24 hrs): 250 ng/mL
